Among the data in patent US12024531B2, “Immunoproteasome inhibitors” (Principia Biopharma Inc., priority 2017, dated 2024) are IC50 values, retold here.

Each structure is given as a SMILES string. Some results are limits rather than exact numbers.

Common to all, as to type: biochemical
Assay [1] concerns the target constitutive proteasome β5c subunit (Homo sapiens, UniProt P28074). In words: Caliper-based proteasome enzymatic activity assay, β5c. The following applies: human recombinant constitutive proteasome 0.3 nM, FAM peptide substrate 1 μM, rt 3 h.
For assay [2], the target named is immunoproteasome LMP7/B5i subunit (Homo sapiens, UniProt P28062). In words: Caliper-based proteasome enzymatic activity assay, LMP7. The conditions noted are these: human recombinant immunoproteasome 0.3 nM, FAM peptide substrate 1 μM, rt 3 h.
Assay [3] concerns the target immunoproteasome LMP2 subunit (Homo sapiens, UniProt P28065). The assay is described as follows: Caliper-based proteasome enzymatic activity assay, LMP2. The conditions noted are these: human recombinant immunoproteasome 0.3 nM, FAM peptide substrate 1 μM, rt 2 h.

For the compound `N#CC(=Cc1ccc2c(c1)CN(CC(=O)N[C@@H](Cc1ccccc1)B(O)O)CC2)c1ccccn1` [Example 66, (R)-(1-(2-(7-(2-cyano-2-(pyridin-2-yl)vinyl)-3,4-dihydroisoquinolin-2(1H)-yl)acetamido)-2-phenylethyl)boronic Acid], the half-maximal inhibitory concentration (IC50) (as a rule, the concentration that gives 50% inhibition) in assay [1] is 33.3 nM; in assay [2] it was 4.6 nM; in assay [3], 74.4 nM.

Take `CN(C)C(=O)C(C#N)=Cc1ccc(F)c(OCCC(=O)N[C@@H](Cc2ccccc2)B(O)O)c1` [Example 27, (R)-(1-(3-(5-(2-cyano-3-(dimethylamino)-3-oxoprop-1-en-1-yl)-2-fluorophenoxy)propanamido)-2-phenylethyl)boronic Acid]: the IC50 was found to be 25 nM in assay [1], 3 nM in assay [2] and 160 nM in assay [3].

For the compound `COc1ccc(C=C(C#N)C(=O)N(C)C)cc1OCCC(=O)N[C@@H](Cc1ccccc1)B(O)O` [Example 26, (R)-(1-(3-(5-(2-cyano-3-(dimethylamino)-3-oxoprop-1-en-1-yl)-2-methoxyphenoxy)propanamido)-2-phenylethyl)boronic Acid], the results for the IC50 in assay [1], in assay [2] and in assay [3] were 34 nM, 4 nM and 310 nM, respectively.

With `C[C@H]1COC[C@H](C)N1C(=O)C(C#N)=Cc1cccc(CCOC(=O)N[C@@H](Cc2ccccc2)B(O)O)c1` [Example 68, ((R)-1-(((3-(2-cyano-3-((3S,5S)-3,5-dimethylmorpholino)-3-oxoprop-1-en-1-yl)phenethoxy)carbonyl)amino)-2-phenylethyl)boronic Acid], the concentration for half-maximal inhibition (IC50) is over 5000 nM in assay [1], 0.7 nM in assay [2] and over 5000 nM in assay [3].

As for `COC(C)(C)CNC(=O)C(C#N)=Cc1cccc(OCCC(=O)N[C@@H](Cc2ccccc2)B(O)O)c1` [Example 48, (R)-(1-(3-(3-(2-cyano-3-((2-methoxy-2-methylpropyl)amino)-3-oxoprop-1-en-1-yl)phenoxy)propanamido)-2-phenylethyl)boronic Acid], the values for the IC50 in assay [1], in assay [2] and in assay [3] were 90.4 nM, 5.1 nM and 415 nM, respectively.

For the compound `Cn1cnc(C(C#N)=Cc2cccc(CCOC(=O)N[C@@H](Cc3ccccc3)B(O)O)c2)cc1=O` [Example 84, (R)-(1-(((3-(2-cyano-2-(1-methyl-6-oxo-1,6-dihydropyrimidin-4-yl)vinyl)phenethoxy)carbonyl)amino)-2-phenylethyl)boronic Acid], the concentration for half-maximal inhibition (IC50) in assay [1] worked out at 240 nM; in assay [2], 1.9 nM; in assay [3] it was 2020 nM.

On to `N#CC(=Cc1cccc(OCCC(=O)N[C@@H](Cc2ccccc2)B(O)O)c1)C(=O)N1CCC1` [Example 30, (R)-(1-(3-(3-(3-(azetidin-1-yl)-2-cyano-3-oxoprop-1-en-1-yl)phenoxy)propanamido)-2-phenylethyl)boronic Acid], for which the IC50 was found to be 120 nM in assay [1], 4 nM in assay [2] and 150 nM in assay [3].

As for `N#CC(=Cc1cccc(OCCC(=O)N[C@@H](Cc2ccccc2)B(O)O)c1)C(=O)NC1CCOCC1` [Example 10, (R)-1-(3-(3-(2-cyano-3-oxo-3-(tetrahydro-2H-pyran-4-ylamino)prop-1-enyl)phenoxy)propanamido)-2-phenylethylboronic Acid], the 50% inhibitory concentration (IC50) came out at 74 nM in assay [1], 5 nM in assay [2] and 970 nM in assay [3].

As to `N#CC(=Cc1cccc(CCNC(=O)N[C@@H](Cc2ccccc2)B(O)O)c1)c1ccccn1` [Example 62, (R)-(1-(3-(3-(2-cyano-2-(pyridin-2-yl)vinyl)phenethyl)ureido)-2-phenylethyl)boronic Acid], the IC50 in assay [1] was over 5000 nM; in assay [2], 186 nM; in assay [3] it was over 5000 nM.

For the compound `CC(C)(C)NC(=O)C(C#N)=Cc1cccc(CC[C@H](NC(=O)c2cc(Cl)ccc2Cl)C(=O)N[C@@H](Cc2ccccc2)B(O)O)c1` [Example 4, (R)-1-((S)-4-(3-(3-(tert-butylamino)-2-cyano-3-oxoprop-1-enyl)phenyl)-2-(2,5-dichlorobenzamido)butanamido)-2-phenylethylboronic Acid], the IC50 in assay [1] stood at 7 nM; in assay [2], 1 nM; in assay [3], 16 nM.

For the compound `Cc1ccc(C[C@H](NC(=O)OCCc2cccc(C=C(C#N)C(=O)N3C4CCC3COC4)c2)B(O)O)cc1` [Example 89, ((1R)-1-(((3-(3-(3-oxa-8-azabicyclo[3.2.1]octan-8-yl)-2-cyano-3-oxoprop-1-en-1-yl)phenethoxy)carbonyl)amino)-2-(p-tolyl)ethyl)boronic Acid], the IC50 was 869 nM in assay [1], 0.5 nM in assay [2] and over 5000 nM in assay [3].

Regarding `N#CC(=Cc1cccc(CCOC(=O)N[C@@H](Cc2ccccc2)B(O)O)c1)c1ccc(C#N)cn1` [Example 78, (R)-(1-(((3-(2-cyano-2-(5-cyanopyridin-2-yl)vinyl)phenethoxy)carbonyl)amino)-2-phenylethyl)boronic Acid], the IC50 in assay [1] came to 390 nM; in assay [2], 1.6 nM; in assay [3] it was 690 nM.

Turning to `CCN(CC)C(=O)C(C#N)=Cc1cc(C#N)cc(CCOC(=O)N[C@@H](Cc2ccc(C)cc2)B(O)O)c1` [Example 101, (R)-(1-(((3-cyano-5-(2-cyano-3-(diethylamino)-3-oxoprop-1-en-1-yl)phenethoxy)carbonyl)amino)-2-(p-tolyl)ethyl)boronic Acid], the IC50 in assay [1] is 440 nM; in assay [2], 0.6 nM; in assay [3] it was over 5000 nM.

For `CCN(C)C(=O)C(C#N)=Cc1cccc(CCOC(=O)N[C@@H](Cc2ccccc2)B(O)O)c1` [Example 90, (R)-(1-(((3-(2-cyano-3-(ethyl(methyl)amino)-3-oxoprop-1-en-1-yl)phenethoxy)carbonyl)amino)-2-phenylethyl)boronic Acid], the IC50 in assay [1] is over 5000 nM; in assay [2] it was 4.6 nM; in assay [3], over 5000 nM.

In the case of `CN(C(=O)C(C#N)=Cc1cccc(CCOC(=O)N[C@@H](Cc2ccccc2)B(O)O)c1)C(C)(C)C` [Example 71, (R)-(1-(((3-(3-(tert-butyl(methyl)amino)-2-cyano-3-oxoprop-1-en-1-yl)phenethoxy)carbonyl)amino)-2-phenylethyl)boronic Acid], the IC50 came out at 2420 nM in assay [1], 0.9 nM in assay [2] and 2010 nM in assay [3].

Regarding `N#CC(=Cc1cccc(CCNC(=O)N[C@@H](Cc2coc3ccccc23)B(O)O)c1)c1ncccn1` [Example 94, (R)-(2-(benzofuran-3-yl)-1-(3-(3-(2-cyano-2-(pyrimidin-2-yl)vinyl)phenethyl)ureido)ethyl)boronic Acid], the concentration for half-maximal inhibition (IC50) was 15 nM in assay [1], 2.2 nM in assay [2] and over 5000 nM in assay [3].

Consider `N#CC(=Cc1cccc(CCOC(=O)N[C@@H](Cc2ccccc2)B(O)O)c1)c1cnccn1` [Example 63, (R)-(1-(((3-(2-cyano-2-(pyrazin-2-yl)vinyl)phenethoxy)carbonyl)amino)-2-phenylethyl)boronic Acid], for which the IC50 in assay [1] was found to be 556 nM; in assay [2] it was 1.4 nM; in assay [3], 1510 nM.

For the compound `Cc1ccc(C[C@H](NC(=O)NCCc2cccc(C=C(C#N)c3ccc(C(F)(F)F)cn3)c2)B(O)O)cc1` [Example 80, (R)-(1-(3-(3-(2-cyano-2-(5-(trifluoromethyl)pyridin-2-yl)vinyl)phenethyl)ureido)-2-(p-tolyl)ethyl)boronic Acid], the IC50 is 2570 nM in assay [1], 43 nM in assay [2] and over 5000 nM in assay [3].

For the compound `CN(C)C(=O)C(C#N)=Cc1ccc(Cl)c(OCCC(=O)N[C@@H](Cc2ccccc2)B(O)O)c1Cl` [Example 38, (R)-(1-(3-(2,6-dichloro-3-(2-cyano-3-(dimethylamino)-3-oxoprop-1-en-1-yl)phenoxy)propanamido)-2-phenylethyl)boronic Acid], the values for the half-inhibitory concentration (IC50) in assay [1], in assay [2] and in assay [3] were 162 nM, 7.3 nM and 223 nM, respectively.

As for `CCN(CC)C(=O)C(C#N)=Cc1cccc(CCNC(=O)N[C@@H](Cc2ccc(C)cc2)B(O)O)c1` [Example 82, (R)-(1-(3-(3-(2-cyano-3-(diethylamino)-3-oxoprop-1-en-1-yl)phenethyl)ureido)-2-(p-tolyl)ethyl)boronic Acid], the IC50 is over 5000 nM in assay [1], 24 nM in assay [2] and over 5000 nM in assay [3].

Consider `COCCNC(=O)C(C#N)=Cc1cccc(OCCC(=O)N[C@@H](Cc2ccccc2)B(O)O)c1` [Example 46, (R)-(1-(3-(3-(2-cyano-3-((2-methoxyethyl)amino)-3-oxoprop-1-en-1-yl)phenoxy)propanamido)-2-phenylethyl)boronic Acid], for which the figures for the IC50 in assay [1], in assay [2] and in assay [3] were 141 nM, 4.6 nM and 370 nM, respectively.

Consider `N#CC(=Cc1cc(CO)cc(CCOC(=O)N[C@@H](Cc2ccccc2)B(O)O)c1)c1ccccn1` [Example 76, (R)-(1-(((3-(2-cyano-2-(pyridin-2-yl)vinyl)-5-(hydroxymethyl)phenethoxy)carbonyl)amino)-2-phenylethyl)boronic Acid], for which the IC50 in assay [1] was 3410 nM; in assay [2], 3.2 nM; in assay [3], over 5000 nM.

As to `N#CC(=Cc1cccc(CCOC(=O)N[C@@H](Cc2ccccc2)B(O)O)c1)c1ccncn1` [Example 59, (R)-(1-(((3-(2-cyano-2-(pyrimidin-4-yl)vinyl)phenethoxy)carbonyl)amino)-2-phenylethyl)boronic Acid], the half-inhibitory concentration (IC50) stood at 354 nM in assay [1], 0.9 nM in assay [2] and 544 nM in assay [3].

In the case of `CN(CC(F)(F)F)C(=O)C(C#N)=Cc1cccc(CCOC(=O)N[C@@H](Cc2ccccc2)B(O)O)c1` [Example 91, (R)-(1-(((3-(2-cyano-3-(methyl(2,2,2-trifluoroethyl)amino)-3-oxoprop-1-en-1-yl)phenethoxy)carbonyl)amino)-2-phenylethyl)boronic Acid], the concentration for half-maximal inhibition (IC50) is 3840 nM in assay [1], 2.3 nM in assay [2] and over 5000 nM in assay [3].
